Patent publication US20210301038A1, “POLYSIALIC ACID AND DERIVATIVES THEREOF, PHARMACEUTICAL COMPOSITION AND METHOD OF PRODUCING POLYSIALIC ACID” (Medizinische Hochschule Hannover (MHH), priority 2018, published 2021)

Legend:
Assay type in all cases: cell-based, mouse
[1] = test system: layer II/III - layer V synapses in mPFC slices; experiment: TBS-induced LTP (fEPSP) in sham- and endoNF-treated mPFC slices from C57BL/6 mice; settings: for LTP level 50-60 min after TBS: endoNF-treated slices, Ro 25-6981 0.3 μM, DP12 1 μg/ml, DP5 1 or 10 μg/ml, sarcosine 0.75 mM, SSR 504734 3 μM
Description: (§1) For endoNF treatment in C57BL/6J mice, slices were first allowed to recover for 20 min at room temperature (22-24° C.) in recording aCSF and were then placed in a 24-well plate to be incubated in 2 ml of aCSF without (sham) or with addition of endoNF (10 μg/ml) at 35° C. for 2 hours. The 24-well plate was installed in a water bath (ED, Julabo, Seelbach, Germany). For field excitatory postsynaptic potential (fEPSP) recordings in knockout and transgenic mice, mPFC slices were incubated in recording aCSF for >2 hours at room temperature before recordings. For patch-clamp recordings in knockout mice, slices were incubated first at 35° C. for 20 min and then at room temperature for >30 min before recordings started. The aCSF was continuously gassed with 95% O2/5% CO2 during all incubation steps and recordings.
(§2) Prefrontal slices (400 μm) were transferred to a submerged-type recording MC membrane chamber (volume 2 ml; Scientific Systems Design Inc., Mississauga, Ontario, Canada) perfused with oxygenated recording ACSF at a flow rate of 4 ml/min and maintained at room temperature (22-25° C.), unless stated otherwise in the “Results”-section given below. Field EPSPs were evoked and recorded using thin-walled glass electrodes (borosilicate glass, wall thickness 0.188, length 100, and outer diameter 1.5 mm, Hilgenberg, Malsfeld, Germany) filled with recording aCSF in 400 μm-thick mPFC slices. In order to stimulate electrically the input fibers of pyramidal cells, the stimulation electrode (0.3-0.5 MΩ) was inserted into layers II/III of the prelimbic cortex. The recording electrode (2-2.5 MΩ) was placed in the vicinity of dendrites and cell bodies of pyramidal neurons in layer V (Huang et al., 2004).
(§3) Before LTP induction, basal synaptic transmission was recorded in each slice and the relationship between stimulus intensity and fEPSP slope was measured. Basal fEPSPs were evoked at 0.05 Hz for at least 10 min. The supramaximal slope was determined by gradually increasing the stimulation intensity until a population spike in the fEPSP became first visible. The stimulation intensity was adjusted to elicit a basal fEPSP with a slope of approximately 50% of the supramaximal value.
(§4) LTP was induced by application of five trains of theta-burst stimulation (TBS) with an inter-theta-train interval of 20 s (Brennaman et al., 2011). Each train consisted of 8 bursts delivered at 5 Hz. Each burst consisted of four pulses delivered at 100 Hz. Duration of pulses was 0.2 ms. For calculation of the LTP level, the mean fEPSP slope was measured between 50-60 min after TBS delivery, and it was then normalized to mean baseline fEPSP slope during 0-10 min before TBS. Stimulus artifacts in representative fEPSP examples in figures were blanked to facilitate the perception of fEPSPs recorded in the mPFC. Recording and analysis of LTP in St8Sia4^−/− mice was performed in a blind manner.
The enzyme endosialidase NF (endoNF) (Stummeyer et al., 2005) and the short form of polysialic acid composed of 10 or twelve sialic acid residues (DP10 and DP12) were purified as described previously (Keys et al., 2014). Sialic acid (N-acetylneuraminic acid, DP1) and the pentamer of sialic acid sodium salt (DP5) were obtained from EY Laboratories (San Mateo, Calif., USA). DMB-labelled DP2 and DP12, and non-labelled avDP10-9OAc were synthesized in the laboratory of Rita Gerardy-Schahn (see sections Synthesis of DMB-DP2 and DMB-DP12 and Synthesis of avDP10-9OAc, respectively). […]

[2] = test system: dissociated hippocampal cultures (primary neural cells); experiment: MTT assay of neural cell viability; settings: 30 to 1000 nM, 48 hours, from 10th day in vitro; DP10 effect at 30, 100 and 300 nM
Description: Primary hippocampal cells were dissociated from embryonic mice on embryonic day 18. To prepare the primary neural cultures, pregnant C57/BL6J mice were sacrificed by cervical dislocation. Embryos were decapitated, and the hippocampi isolated from brains under sterile conditions and dissected. Enzymatic digestion by 0.25% trypsin/EDTA solution was followed by separation of the cells in serum-containing medium via trituration (10 passes, 1 ml pipette). The primary cells were seeded onto 96-well plates coated with 100 μg/ml poly-lysine and 20 μg/ml laminin. The plating density was 20,000 cells per well. First, 200 μl Dulbecco's modified Eagle's medium (DMEM) was applied per well (supplemented with 1% penicillin-streptomycin and 1% L-glutamine and 2% B27). After incubation for 2 h at 37° C./5% CO2, the medium was exchanged with the pre-warmed Neurobasal medium including 1% penicillin-streptomycin, 1% L-glutamine, and 2% B27. The cells—predominantly neurons and astrocytes—were incubated at 37° C. in 5% CO2 humidified atmosphere for 10 days before administration of reagents.
The assay was performed as described elsewhere with minor modifications (Khalid et al., 2018). Primary neural cells (see above) grown in a 96-well plate were exposed to drugs/vehicles for 48 h at 37° C./5% CO2. After aspiration of culture media, a washing was done with 100 μl phosphate buffered saline (PBS, pH=7.2). Then, PBS was completely removed, and 100 μl phenol red-free pre-warmed Neurobasal media and 50 μl MTT solution (3-(4,5-dimethylthiazol-2-yl)-2,5-diphenyltetrazolium bromide, 5 mg/ml; dissolved in PBS) were added to each well and plates were incubated for 4 h in an incubator. […] DMSO destroyed the cells and released the formazan, which was detected by optical density value at 560 nm, measured using a plate reader. Optical density values for wells containing cells were corrected by subtracting values measured in cell-free wells prepared and treated in the same way as wells containing control cells.

[3] = test system: mPFC slices from St8sia4−/− mice; experiment: TBS-induced LTP in mPFC slices from ST8SIA4-deficient mice and wild-type littermates; settings: Ro 25-6981 0.3 μM, DP12 1 μg/ml, sarcosine 0.75 mM; for LTP magnitude: St8sia4+/+ mice; for LTP level 50-60 min after TBS: St8sia4−/− mice
Description: as §1, §2, §3, §4

Molecule	LTP level 50-60 min after TBS [1]	LTP magnitude ([1]; sham-treated slices, 0.3 μM)	effect on neural cell viability [2]	LTP magnitude [3]	LTP level 50-60 min after TBS [3]
C[C@@H](CN1CCC(Cc2ccccc2)CC1)[C@@H](O)c1ccc(O)cc1.O=C(O)/C=C\C(=O)O [Ro 25-6981, (αR,βS)-α-(4-hydroxyphenyl)-β-methyl-4-(phenylmethyl)-1-piperidinepropanol maleate]	full restoration of LTP levels	no effect	no effects	no effect	full restoration of LTP levels
(α(2→8)Neu5Ac)12 [DP12]	full restoration of LTP levels	–	No effects	no effect	full restoration of LTP levels
